Assay results from US20180008573A1, “METHODS AND COMPOSITIONS FOR REDUCING DAMAGE ASSOCIATED WITH OXIDATIVE PHOSPHORYLATION” (USANA Health Sciences, Inc., priority 2016, published 2018).

Columns and labels:
human PPARα = biological target: T1, human PPARα (Homo sapiens, UniProt Q07869); assay: PPARα agonist reporter assay (Gal4 hybrid receptor, luciferase, CHO cells); assay type: cell-based
T1 construct: expressed in transfected cells; host or cells: CHO
T1 sequence (Q07869 239-466 limits assumed): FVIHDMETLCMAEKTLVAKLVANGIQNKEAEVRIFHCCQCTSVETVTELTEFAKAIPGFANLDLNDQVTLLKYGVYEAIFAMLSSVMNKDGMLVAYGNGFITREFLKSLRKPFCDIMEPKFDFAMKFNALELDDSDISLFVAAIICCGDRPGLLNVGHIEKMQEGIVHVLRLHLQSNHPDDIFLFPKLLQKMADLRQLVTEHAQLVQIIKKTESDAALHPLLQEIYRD

Nrf2 = biological target: T2, Nrf2 (Homo sapiens, UniProt Q16236); assay: Nrf2 agonist reporter assay (native receptor, ARE-luciferase, CV1 cells); assay type: cell-based; set-up: comprising either the native receptor (Nrf2 and NF-κB); expressed in transfected cells; host or cells: CV1
T2 sequence (Q16236 1-605): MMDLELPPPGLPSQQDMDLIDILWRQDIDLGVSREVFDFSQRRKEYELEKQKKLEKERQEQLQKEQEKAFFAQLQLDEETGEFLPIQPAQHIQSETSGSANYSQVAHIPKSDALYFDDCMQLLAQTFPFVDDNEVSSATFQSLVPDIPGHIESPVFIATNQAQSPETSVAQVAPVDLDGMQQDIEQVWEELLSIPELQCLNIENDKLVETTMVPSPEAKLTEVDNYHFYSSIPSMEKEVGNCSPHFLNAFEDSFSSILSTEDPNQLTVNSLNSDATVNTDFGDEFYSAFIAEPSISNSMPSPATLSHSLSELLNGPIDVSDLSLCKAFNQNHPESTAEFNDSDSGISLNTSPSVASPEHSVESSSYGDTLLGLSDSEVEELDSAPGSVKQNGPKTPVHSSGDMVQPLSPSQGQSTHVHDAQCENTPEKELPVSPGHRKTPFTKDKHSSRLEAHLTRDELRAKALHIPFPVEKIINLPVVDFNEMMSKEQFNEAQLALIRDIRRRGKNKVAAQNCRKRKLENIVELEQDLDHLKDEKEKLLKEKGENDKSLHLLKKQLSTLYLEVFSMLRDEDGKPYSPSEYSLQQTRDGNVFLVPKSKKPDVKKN

human PPARγ = biological target: T3, human PPARγ (Homo sapiens, UniProt P37231); assay: PPARγ agonist reporter assay (Gal4 hybrid receptor, luciferase, CHO cells); assay type: cell-based
T3 construct: expressed in transfected cells; host or cells: CHO
T3 sequence (P37231 238-503 limits assumed): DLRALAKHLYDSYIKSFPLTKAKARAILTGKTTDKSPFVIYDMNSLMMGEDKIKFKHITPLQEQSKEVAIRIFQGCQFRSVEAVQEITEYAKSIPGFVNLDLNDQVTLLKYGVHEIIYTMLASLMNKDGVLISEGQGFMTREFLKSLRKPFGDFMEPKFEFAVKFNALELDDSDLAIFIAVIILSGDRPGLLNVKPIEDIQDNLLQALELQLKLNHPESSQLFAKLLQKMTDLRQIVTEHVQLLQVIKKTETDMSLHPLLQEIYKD

NF-κB reporter cells = assay: Live cell multiplex assay in the NF-κB antagonist assay; assay type: cell-based, human
Protocol: A vehicle control was prepared.

PPARα Fold-Activation (human PPARα; 1.42 μg/ml active ingredient): 1.4 fold
PPARα Fold-Activation (human PPARα; 4.25 μg/ml active ingredient): 1.3 fold
PPARα Fold-Activation (human PPARα; 12.7 μg/ml active ingredient): 1.2 fold
PPARα Fold-Activation (human PPARα; 38.23 μg/ml active ingredient): 1.5 fold
PPARα Fold-Activation (human PPARα; 114.70 μg/ml active ingredient): 2.3 fold
agonist activity against human PPARα (human PPARα; at the concentrations tested): very low-level agonist activity
Nrf2 Fold-Activation (Nrf2; 1.42 μg/ml active ingredient): 1.4 fold
Nrf2 Fold-Activation (Nrf2; 4.25 μg/ml active ingredient): 1.4 fold
Nrf2 Fold-Activation (Nrf2; 12.7 μg/ml active ingredient): 1.5 fold
Nrf2 Fold-Activation (Nrf2; 38.23 μg/ml active ingredient): 1.5 fold
Nrf2 Fold-Activation (Nrf2; 114.70 μg/ml active ingredient): 2.4 fold
agonist activity against human Nrf2 (Nrf2; at the concentrations tested): very low-level agonist activity
PPARγ Fold-Activation (human PPARγ; 1.42 μg/ml active ingredient): 1.1 fold
PPARγ Fold-Activation (human PPARγ; 4.25 μg/ml active ingredient): 1.1 fold
PPARγ Fold-Activation (human PPARγ; 12.7 μg/ml active ingredient): 1.3 fold
PPARγ Fold-Activation (human PPARγ; 38.23 μg/ml active ingredient): 1.4 fold
PPARγ Fold-Activation (human PPARγ; 114.70 μg/ml active ingredient): 3.4 fold
agonist activity against human PPARγ (human PPARγ; at the concentrations tested): very low-level agonist activity
induction concentration (PPARγ) (human PPARγ; in the mixture): 1.22 µg/mL
induction concentration (PPARγ) (human PPARγ; used alone): 114.8 µg/mL
Compound: O=C(O)CCCCC1CCSS1 (racemic) [Alpha lipoic acid, alpha lipoic acid]
NF-κB % Live Cell (NF-κB reporter cells; 1.42 μg/ml active ingredient): 100%
NF-κB % Live Cell (NF-κB reporter cells; 4.25 μg/ml active ingredient): 104%
NF-κB % Live Cell (NF-κB reporter cells; 12.7 μg/ml active ingredient): 102%
NF-κB % Live Cell (NF-κB reporter cells; 38.23 μg/ml active ingredient): 104%
NF-κB % Live Cell (NF-κB reporter cells; 114.70 μg/ml active ingredient): 105%
